{"source": "paper PMC10301432", "about": "“Antiplasmodial, Trypanocidal, and Genotoxicity In Vitro Assessment of New Hybrid α,α-Difluorophenylacetamide-statin Derivatives” (Pharmaceuticals, 2023)", "key": {"[1]": {"experiment": "Salmonella/microsome assay, TA104", "settings": "Salmonella enterica serovar Typhimurium, S. typhimurium TA104 with S9 mix, LC50 (bacterial cytotoxicity) TA104, presence of S9 mix", "experimental": "(§1) Salmonella enterica serovar Typhimurium (S. typhimurium) strains TA97, TA98, TA100, TA104 and TA102 from the authors’ stock were used as described in the mutagenicity assay.\n(§2) To determine the cytotoxic effects, after 30 min pre-incubation, the assay mixtures were diluted in 0.9% NaCl (w/v) to obtain a suspension containing 2 × 10^2 cells/mL. […] The plates were then incubated at 37 °C for 24 h and the colonies counted. All the experiments were conducted in triplicate and were repeated at least twice. Statistical differences between the groups were analyzed by a two-way ANOVA (p < 0.05) and Tukey’s post hoc test."}, "[2]": {"system": "Salmonella enterica serovar Typhimurium TA104", "experiment": "Salmonella/microsome assay, TA104", "experimental": "as §1, §2"}, "[3]": {"system": "Salmonella enterica serovar Typhimurium TA97", "experiment": "Salmonella/microsome assay, TA97", "experimental": "as §1, §2"}, "T. cruzi": {"system": "T. cruzi", "experiment": "Trypanocidal in vitro phenotypic screening, overall outcome", "assay_type": "cell-based, Trypanosoma cruzi", "settings": "summarized outcome", "experimental": "Bloodstream trypomastigote forms (BT) of the Y strain were obtained from infected albino Swiss mice at the peak of parasitemia, isolated by differential centrifugation and resuspended in DMEM to a parasite concentration of 10^7 cells/mL in the presence of 10% of mouse blood. This suspension (100 µL) was added in the same volume of 13 (a–d) and 14 (a–d) previously prepared at twice the desired final concentrations.\n(§3) Tissue culture-derived trypomastigotes (Tulahuen strain expressing the E. coli β-galactosidase gene) were maintained in L929 cell lines and collected from the supernatant after 96 h of parasite infection, following previously established protocols. Briefly, after 24 h of L929 platting (4 × 10^3 cells/well), the cultures were incubated with trypomastigotes (10:1 parasite/host cell ratio) for 2 h at 37 °C. Then, the cell cultures were rinsed to remove non-internalized parasites and then further incubated for 24 h at 37 °C. Then the infected cultures were followed using two sequential protocols. […] After this period, 50 µL chlorophenol red glycoside (500 µM) in 0.5% Nonidet P40 was added to each well and the plate was incubated for more than 18 h at 37 °C, after which the absorbance was measured at 570 nm. Then, the compounds were next evaluated using dose–response assays in which Tulahuen-infected-L929 cells were exposed to different non-toxic concentrations of each compound (0–50 µM) and then after 96 h of incubation the same procedure was conducted as above reported. Controls with untreated and Bz-treated cells are run in parallel. The results were expressed as the percent difference in the reduction between treated and untreated cells."}, "[4]": {"system": "intracellular forms of T. cruzi (Tulahuen strain transfected with β-galactosidase)", "experiment": "Activity against intracellular T. cruzi in L929 cells", "assay_type": "cell-based, Trypanosoma cruzi", "settings": "96 h; for EC50: intracellular forms, Tulahuen strain", "experimental": "as §3, with “Then, the compounds were next evaluated using dose–response assays in which Tulahuen-infected-L929 cells were exposed to different non-toxic concentrations of each compound (0–50 µM) and then after 96 h of incubation the same procedure was conducted as above reported.” left out"}, "[5]": {"system": "Salmonella enterica serovar Typhimurium TA102"}, "[6]": {"system": "Salmonella enterica serovar Typhimurium TA98", "experiment": "Salmonella/microsome assay, TA98", "experimental": "as §1, §2"}}, "note": "Entries after “also recorded” stand apart in the source; their conditions may differ. Like-named read-outs stand apart in the source and are kept apart here."}
{"compound": "CC(=O)Nc1ccccc1C(F)(F)C(=O)NCC[C@@H]1C[C@H](CC(=O)OC(C)(C)C)OC(C)(C)O1", "note": "[Compound 13a, tert-Butyl 2-((4R,6R)-6-(2-(2-(2-acetamidophenyl)-2,2-difluoroacetamido)ethyl)-2,2-dimethyl-1,3-dioxan-4-yl)acetate]", "values": [{"measurement": "CC50 at 30 min", "setting": "[1]", "value": "1280 ± 21.1", "unit": "µM"}, {"measurement": "revertant His+ colonies TA104", "setting": "[2]; +S9, 3 µM", "value": "390 ± 49"}, {"measurement": "revertant His+ colonies TA104", "setting": "[2]; +S9, 15 µM", "value": "417 ± 15"}, {"measurement": "revertant His+ colonies TA104", "setting": "[2]; +S9, 30 µM", "value": "467 ± 19"}, {"measurement": "revertant His+ colonies TA104", "setting": "[2]; +S9, 150 µM", "value": "330 ± 9"}, {"measurement": "revertant His+ colonies TA104", "setting": "[2]; +S9, 300 µM", "value": "268 ± 37"}, {"measurement": "revertant His+ colonies TA104", "setting": "[2]; +S9, 1500 µM", "value": "Cytotoxic"}, {"measurement": "revertant His+ colonies TA104", "setting": "[2]; −S9, 3 µM", "value": "264 ± 27"}, {"measurement": "revertant His+ colonies TA104", "setting": "[2]; −S9, 15 µM", "value": "307 ± 18"}, {"measurement": "revertant His+ colonies TA104", "setting": "[2]; −S9, 30 µM", "value": "314 ± 26"}, {"measurement": "revertant His+ colonies TA104", "setting": "[2]; −S9, 150 µM", "value": "315 ± 36"}, {"measurement": "revertant His+ colonies TA104", "setting": "[2]; −S9, 300 µM", "value": "316 ± 33"}, {"measurement": "revertant His+ colonies TA104", "setting": "[2]; −S9, 1500 µM", "value": "350 ± 21"}, {"measurement": "revertant His+ colonies TA97", "setting": "[3]; +S9, 3 µM", "value": "214 ± 21"}, {"measurement": "revertant His+ colonies TA97", "setting": "[3]; +S9, 15 µM", "value": "217 ± 9"}, {"measurement": "revertant His+ colonies TA97", "setting": "[3]; +S9, 30 µM", "value": "235 ± 23"}, {"measurement": "revertant His+ colonies TA97", "setting": "[3]; +S9, 150 µM", "value": "237 ± 26"}, {"measurement": "revertant His+ colonies TA97", "setting": "[3]; +S9, 300 µM", "value": "237 ± 4"}, {"measurement": "revertant His+ colonies TA97", "setting": "[3]; +S9, 1500 µM", "value": "290 ± 28"}, {"measurement": "revertant His+ colonies TA97", "setting": "[3]; −S9, 3 µM", "value": "78 ± 6"}, {"measurement": "revertant His+ colonies TA97", "setting": "[3]; −S9, 15 µM", "value": "82 ± 8"}, {"measurement": "revertant His+ colonies TA97", "setting": "[3]; −S9, 30 µM", "value": "79 ± 8"}, {"measurement": "revertant His+ colonies TA97", "setting": "[3]; −S9, 150 µM", "value": "69 ± 10"}, {"measurement": "revertant His+ colonies TA97", "setting": "[3]; −S9, 300 µM", "value": "80 ± 11"}, {"measurement": "revertant His+ colonies TA97", "setting": "[3]; −S9, 1500 µM", "value": "90 ± 9"}, {"measurement": "Trypanocidal Activity", "setting": "T. cruzi", "value": "No"}, {"measurement": "EC50", "setting": "[4]; Trypanosoma cruzi, TULAHUEN, L929, 96 h", "value": "≥ 50", "unit": "µM"}, {"measurement": "10µM (% of Parasite Lysis)", "setting": "[4]; fixed concentration 10 µM", "value": "17.92 ± 11.02", "unit": "%"}, {"measurement": "EC50", "setting": "[4]", "value": "> 50", "unit": "µM"}, {"measurement": "revertant His+ colonies TA102", "setting": "[5]; +S9, 3 µM", "value": "384 ± 32"}, {"measurement": "revertant His+ colonies TA102", "setting": "[5]; +S9, 15 µM", "value": "399 ± 32"}, {"measurement": "revertant His+ colonies TA102", "setting": "[5]; +S9, 30 µM", "value": "407 ± 21"}, {"measurement": "revertant His+ colonies TA102", "setting": "[5]; +S9, 150 µM", "value": "411 ± 46"}, {"measurement": "revertant His+ colonies TA102", "setting": "[5]; +S9, 300 µM", "value": "448 ± 52"}, {"measurement": "revertant His+ colonies TA102", "setting": "[5]; +S9, 1500 µM", "value": "501 ± 20"}, {"measurement": "revertant His+ colonies TA102", "setting": "[5]; −S9, 3 µM", "value": "458 ± 19"}, {"measurement": "revertant His+ colonies TA102", "setting": "[5]; −S9, 15 µM", "value": "435 ± 22"}, {"measurement": "revertant His+ colonies TA102", "setting": "[5]; −S9, 30 µM", "value": "433 ± 7"}, {"measurement": "revertant His+ colonies TA102", "setting": "[5]; −S9, 150 µM", "value": "380 ± 12"}, {"measurement": "revertant His+ colonies TA102", "setting": "[5]; −S9, 300 µM", "value": "345 ± 48"}, {"measurement": "revertant His+ colonies TA102", "setting": "[5]; −S9, 1500 µM", "value": "Cytotoxic"}, {"measurement": "revertant His+ colonies TA98", "setting": "[6]; +S9, 3 µM", "value": "25 ± 8"}, {"measurement": "revertant His+ colonies TA98", "setting": "[6]; +S9, 15 µM", "value": "25 ± 4"}, {"measurement": "revertant His+ colonies TA98", "setting": "[6]; +S9, 30 µM", "value": "26 ± 5"}, {"measurement": "revertant His+ colonies TA98", "setting": "[6]; +S9, 150 µM", "value": "27 ± 1"}, {"measurement": "revertant His+ colonies TA98", "setting": "[6]; +S9, 300 µM", "value": "33 ± 1"}, {"measurement": "revertant His+ colonies TA98", "setting": "[6]; +S9, 1500 µM", "value": "36 ± 3"}, {"measurement": "revertant His+ colonies TA98", "setting": "[6]; −S9, 3 µM", "value": "24 ± 3"}, {"measurement": "revertant His+ colonies TA98", "setting": "[6]; −S9, 15 µM", "value": "29 ± 6"}, {"measurement": "revertant His+ colonies TA98", "setting": "[6]; −S9, 30 µM", "value": "31 ± 8"}, {"measurement": "revertant His+ colonies TA98", "setting": "[6]; −S9, 150 µM", "value": "32 ± 3"}, {"measurement": "revertant His+ colonies TA98", "setting": "[6]; −S9, 300 µM", "value": "52 ± 4"}, {"measurement": "revertant His+ colonies TA98", "setting": "[6]; −S9, 1500 µM", "value": "61 ± 5"}, {"measurement": "mutagenicity to TA98", "setting": "[6]; −S9, at concentrations above 300 µM", "value": "significant mutagenicity; also recorded: enhanced the number of revertants"}]}
